According to ChEMBL document CHEMBL1201862, “PubChem BioAssay data set” (2004):
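48-hour exposure; five concentrations; linearly interpolated endpoints. GI50 is the concentration that inhibits growth by half.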 The source made the active and inactive calls. No stated cut-off is given here; in the data, active = GI50 up to about 1.1 µM and inactive = higher.

Assays:
Assay in all cases: NCI tumour cell line growth inhibition, 48 h
CAKI-1 = tested on: CAKI-1
PC-3 = tested on: PC-3
LOX IMVI = tested on: LOX IMVI
Malme-3M = tested on: Malme-3M
NCI-H522 = tested on: NCI-H522
SK-MEL-28 = tested on: SK-MEL-28
NCI-H23 = tested on: NCI-H23
SNB-75 = tested on: SNB-75
MOLT-4 = tested on: MOLT-4
UACC-257 = tested on: UACC-257
KM12 = tested on: KM12
MDA-MB-435 = tested on: MDA-MB-435
HOP-62 = tested on: HOP-62
OVCAR-3 = tested on: OVCAR-3
OVCAR-5 = tested on: OVCAR-5
MDA-N = tested on: MDA-N
ACHN = tested on: ACHN
HCT-116 = tested on: HCT-116
IGROV-1 = tested on: IGROV-1
HL-60 = tested on: HL-60

Measured: GI50

CCCCC(=O)Nc1ccc2cc(C(=O)OC)c(=O)[nH]c2n1
inactive: CAKI-1 > 100 µM | PC-3 > 100 µM | LOX IMVI > 100 µM | Malme-3M > 100 µM | NCI-H522 > 100 µM | SK-MEL-28 > 100 µM | NCI-H23 > 100 µM | SNB-75 > 100 µM | MOLT-4 > 100 µM | UACC-257 > 100 µM | KM12 > 100 µM | MDA-MB-435 > 100 µM | HOP-62 > 100 µM | OVCAR-3 > 100 µM | OVCAR-5 > 100 µM | MDA-N > 100 µM | ACHN > 100 µM | HCT-116 > 100 µM | IGROV-1 > 100 µM

O=C(O)c1[nH]c(=O)[nH]c(=O)c1CN1CCCCC1
inactive: CAKI-1 > 100 µM | PC-3 > 100 µM | LOX IMVI > 100 µM | Malme-3M > 100 µM | NCI-H522 > 100 µM | SK-MEL-28 > 100 µM | NCI-H23 > 100 µM | SNB-75 > 100 µM | UACC-257 > 100 µM | KM12 > 100 µM | HL-60 > 100 µM | MDA-MB-435 > 100 µM | HOP-62 > 100 µM | OVCAR-3 > 100 µM | OVCAR-5 > 100 µM | MDA-N > 100 µM | ACHN > 100 µM | HCT-116 > 100 µM | IGROV-1 > 100 µM

CCOP(=O)(OCC)C(NC(=O)OCC(Cl)(Cl)Cl)n1nnc(C(=O)OC)c1C(=O)OC (stereo not drawn)
inactive: CAKI-1 > 100 µM | PC-3 77.8 µM | LOX IMVI > 100 µM | Malme-3M > 100 µM | NCI-H522 > 100 µM | SK-MEL-28 > 100 µM | NCI-H23 > 100 µM | SNB-75 > 100 µM | MOLT-4 > 100 µM | UACC-257 > 100 µM | KM12 > 100 µM | HL-60 > 100 µM | MDA-MB-435 > 100 µM | HOP-62 > 100 µM | OVCAR-3 > 100 µM | MDA-N > 100 µM | ACHN > 100 µM | HCT-116 > 100 µM | IGROV-1 > 100 µM

O=C1C(=O)C(CCCO)(CCCO)CCCCCCCCC1(CCCO)CCCO
inactive: CAKI-1 > 100 µM | PC-3 55.3 µM | LOX IMVI 64.7 µM | Malme-3M > 100 µM | NCI-H522 48.4 µM | SK-MEL-28 41.9 µM | NCI-H23 > 100 µM | SNB-75 50.1 µM | UACC-257 73.8 µM | KM12 78.5 µM | HL-60 12.4 µM | MDA-MB-435 61.2 µM | HOP-62 > 100 µM | OVCAR-3 32.2 µM | OVCAR-5 > 100 µM | MDA-N 86.9 µM | ACHN > 100 µM | HCT-116 32 µM | IGROV-1 41.3 µM

N#C/C(=C\c1ccc(F)cc1)c1nc(-c2cc3ccccc3oc2=O)cs1
inactive: CAKI-1 53.6 µM | PC-3 31.7 µM | LOX IMVI 87.7 µM | Malme-3M 15.7 µM | NCI-H522 17.9 µM | SK-MEL-28 44.7 µM | SNB-75 7.01 µM | MOLT-4 > 100 µM | UACC-257 20.7 µM | KM12 59 µM | HL-60 > 100 µM | MDA-MB-435 54.2 µM | HOP-62 8.28 µM | OVCAR-5 > 100 µM | MDA-N 76.2 µM | ACHN 22 µM | HCT-116 35.2 µM | IGROV-1 22.6 µM

Cc1cc(N(C)C)ccc1/N=N/c1ccc2ncccc2c1
inactive: CAKI-1 > 100 µM | PC-3 59.2 µM | Malme-3M 62.4 µM | NCI-H522 13.3 µM | NCI-H23 59.3 µM | SNB-75 25.4 µM | MOLT-4 16.8 µM | UACC-257 98.4 µM | KM12 66.7 µM | HL-60 19.9 µM | MDA-MB-435 > 100 µM | OVCAR-5 > 100 µM | MDA-N > 100 µM | ACHN > 100 µM | HCT-116 59.7 µM | IGROV-1 86.3 µM

O=S(=O)(O)c1cc(O)c2c(O)c(/N=N/c3cccc4ccccc34)c(S(=O)(=O)O)cc2c1
inactive: CAKI-1 > 100 µM | PC-3 > 100 µM | LOX IMVI > 100 µM | Malme-3M > 100 µM | NCI-H522 > 100 µM | SK-MEL-28 > 100 µM | NCI-H23 > 100 µM | SNB-75 > 100 µM | MOLT-4 > 100 µM | UACC-257 > 100 µM | KM12 > 100 µM | MDA-MB-435 > 100 µM | HOP-62 > 100 µM | OVCAR-3 > 100 µM | OVCAR-5 > 100 µM | MDA-N > 100 µM | ACHN > 100 µM | HCT-116 > 100 µM | IGROV-1 > 100 µM

O=C(O)C(F)(F)C(F)(F)C(F)(F)C(F)(F)C(=O)O
inactive: CAKI-1 > 100 µM | PC-3 > 100 µM | LOX IMVI > 100 µM | Malme-3M > 100 µM | NCI-H522 > 100 µM | SK-MEL-28 > 100 µM | NCI-H23 > 100 µM | SNB-75 > 100 µM | UACC-257 > 100 µM | KM12 > 100 µM | HL-60 > 100 µM | MDA-MB-435 > 100 µM | HOP-62 > 100 µM | OVCAR-3 > 100 µM | OVCAR-5 > 100 µM | MDA-N > 100 µM | ACHN > 100 µM | HCT-116 > 100 µM | IGROV-1 > 100 µM
